Read-outs that look alike come from different tables or passages of the source.
Key:
[1] = biological target: cytochrome P450 2C9 (Homo sapiens, UniProt P11712); assay: In vitro cytochrome P450 inhibition; assay type: biochemical; settings: 2 to 200 ng/mL
[2] = Rifaximin systemic exposure/pharmacokinetics in healthy subjects, IBS subjects and liver impaired subjects; assay type: in vivo, human; settings: for AUC / Cmax / half-life / Tmax / AUC(0-inf): human, plasma; for Tmax: read-out: Tmax, Median (range); for AUC(0-inf): po, single 550 mg oral dose, read-out: Mean AUC0-∞
Description: Subjects with non-c-IBS had mean AUCtau values following a single dose and multiple TID doses of 9.69 ng·h/mL and 16.0 ng·h/mL, respectively, reflecting an accumulation ratio (Rc; multiple-dose AUCtau/single-dose AUCtau) of […]. In subjects with liver impairment, systemic exposure is higher than that observed in healthy subjects or subjects with non-constipation irritable bowel syndrome, but low nonetheless.
Pharmacokinetic parameters were measured after a single dose and multiple doses (14 days).

[3] = Crossover drug interaction study: oral cyclosporine 600 mg on pharmacokinetics of single-dose rifaximin 550 mg; assay type: in vivo, human
Description: Eligible subjects were healthy men and women 18 to 45 years of age. […] The 2 dosing periods were separated by 7 days. […] Subjects underwent a supervised fast overnight (for >8 hours) before dosing and for 4 hours after dosing, though water was permitted ad libitum. Subjects remained at the clinical research unit from Day 0 through the morning of Day 3, and from Day 7 through Day 10. A follow-up phone contact was made 3 (+1) days after discharge, which concluded their participation in the study. Study duration was up to 35 days, including a 21-day screening window, dosing on Day 1, a 7-day washout period, dosing on Day 8, discharge from the clinic on Day 10, and a 3 (+1) day follow-up period after discharge.

[4] = both sexes, human, plasma, oral
[5] = both sexes, human, plasma, oral, 550 mg

Chain of cytochrome P450 2C9 (P11712 whole entry): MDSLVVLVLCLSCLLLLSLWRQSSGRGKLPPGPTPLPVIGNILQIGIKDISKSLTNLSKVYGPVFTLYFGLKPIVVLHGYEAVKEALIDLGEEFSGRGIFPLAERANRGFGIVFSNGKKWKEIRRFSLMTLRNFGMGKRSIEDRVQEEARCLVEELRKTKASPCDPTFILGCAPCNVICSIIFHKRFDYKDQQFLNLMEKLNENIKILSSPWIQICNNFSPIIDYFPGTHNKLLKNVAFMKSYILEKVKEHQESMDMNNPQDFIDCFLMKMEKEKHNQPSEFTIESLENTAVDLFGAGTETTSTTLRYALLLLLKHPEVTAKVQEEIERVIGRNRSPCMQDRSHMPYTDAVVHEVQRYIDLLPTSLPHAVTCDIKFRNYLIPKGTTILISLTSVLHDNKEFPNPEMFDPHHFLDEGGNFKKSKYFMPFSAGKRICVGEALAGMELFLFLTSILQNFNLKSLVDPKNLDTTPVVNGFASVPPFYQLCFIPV

SMILES: CO[C@H]1/C=C/O[C@@]2(C)Oc3c(C)c(O)c4c(O)c(c5c(nc6cc(C)ccn65)c4c3C2=O)NC(=O)/C(C)=C\C=C\[C@H](C)[C@H](O)[C@@H](C)[C@@H](O)[C@@H](C)[C@H](OC(C)=O)[C@@H]1C [Rifaximin, (2S,16Z,18E,20S,21S,22R,23R,24R,25S,26S,27S,28E)-5,6,21,23,25 Pentahydroxy-27-methoxy-2,4,11,16,20,22,24,26-octamethyl-2,7-(epoxypentadeca-(1,11,13)trienimino) benzofuro (4,5-e) pyrido(1,2-a) benzimidazole-1,15(2H)-dione,25-acetate]
- Inhibition of cytochrome P450 2C9 [1]: does not inhibit
- AUC ([2]; 550 mg, 550 mg BID repeat dosing, Child Pugh B, read-out: Mean steady-state AUCtau): 161 ng·h/mL
- AUC ([2]; 550 mg, 550 mg BID repeat dosing, Child-Pugh A, read-out: Mean steady-state AUCtau): 118 ng·h/mL
- AUC ([2]; 550 mg, 550 mg BID repeat dosing, Child-Pugh C, read-out: Mean steady-state AUCtau): 246 ng·h/mL
- AUC ([2]; 550 mg, multiple-dose TID, healthy subjects, read-out: Mean AUCtau, steady-state): 9.3 ng·h/mL
- AUC ([2]; 550 mg, subjects with non-c-IBS, multiple TID doses, read-out: Mean AUCtau): 16 ng·h/mL
- AUC ([2]; 550 mg, subjects with non-c-IBS, single dose, read-out: Mean AUCtau): 9.69 ng·h/mL
- AUC ([2]; multiple-dose BID, healthy subjects, read-out: Mean AUCtau, steady-state): 12.3 ng·h/mL
- AUC ([2]; oral, 550 mg, 550 mg BID, Child-Pugh C, read-out: Mean steady-state AUCtau): 257 ng·h/mL
- Cmax ([2]; oral, 550 mg, 550 mg BID, Child-Pugh C, read-out: Mean steady-state Cmax): 39.7 ng/mL
- half-life ([2]; oral, 550 mg, Child-Pugh C subjects, read-out: Mean half-life (converted)): 6.35 h
- AUC ([2]; oral, 550 mg, Healthy Subjects, 550 mg Multiple-Dose TID (Day 14), N = 14, read-out: AUCtau, mean (SD)): 9.3 ng·h/mL
- Cmax ([2]; oral, 550 mg, Healthy Subjects, 550 mg Multiple-Dose TID (Day 14), N = 14, read-out: Cmax, mean (SD)): 2.39 ng/mL
- half-life ([2]; oral, 550 mg, Healthy Subjects, 550 mg Multiple-Dose TID (Day 14), N = 14, read-out: Half-life, harmonic mean (pseudo SD) (converted)): 5.63 h
- Tmax ([2]; oral, 550 mg, Healthy Subjects, 550 mg Multiple-Dose TID (Day 14), N = 14): 1 h
- AUC ([2]; oral, 550 mg, Healthy Subjects, 550 mg Single-Dose (Day 1), N = 12, read-out: AUCtau, mean (SD)): 10.4 ng·h/mL
- Cmax ([2]; oral, 550 mg, Healthy Subjects, 550 mg Single-Dose (Day 1), N = 12, read-out: Cmax, mean (SD)): 4.04 ng/mL
- half-life ([2]; oral, 550 mg, Healthy Subjects, 550 mg Single-Dose (Day 1), N = 12, read-out: Half-life, harmonic mean (pseudo SD) (converted)): 1.83 h
- Tmax ([2]; oral, 550 mg, Healthy Subjects, 550 mg Single-Dose (Day 1), N = 12): 0.75 h
- AUC ([2]; oral, 550 mg, IBS-D Patients, 550 mg Multiple-Dose TID (Day 14), N = 24, read-out: AUCtau, mean (SD)): 16 ng·h/mL
- Cmax ([2]; oral, 550 mg, IBS-D Patients, 550 mg Multiple-Dose TID (Day 14), N = 24, read-out: Cmax, mean (SD)): 4.22 ng/mL
- half-life ([2]; oral, 550 mg, IBS-D Patients, 550 mg Multiple-Dose TID (Day 14), N = 24, read-out: Half-life, harmonic mean (pseudo SD) (converted)): 6.08 h
- Tmax ([2]; oral, 550 mg, IBS-D Patients, 550 mg Multiple-Dose TID (Day 14), N = 24): 1 h
- AUC ([2]; oral, 550 mg, IBS-D Patients, 550 mg Single-Dose (Day 1), N = 24, read-out: AUCtau, mean (SD)): 9.69 ng·h/mL
- Cmax ([2]; oral, 550 mg, IBS-D Patients, 550 mg Single-Dose (Day 1), N = 24, read-out: Cmax, mean (SD)): 3.49 ng/mL
- half-life ([2]; oral, 550 mg, IBS-D Patients, 550 mg Single-Dose (Day 1), N = 24, read-out: Half-life, harmonic mean (pseudo SD) (converted)): 3.14 h
- Tmax ([2]; oral, 550 mg, IBS-D Patients, 550 mg Single-Dose (Day 1), N = 24): 0.775 h
- Cmax ([2]; oral, 550 mg, single 550-mg dose, fasted healthy subjects, read-out: Cmax): 4.1 ng/mL
- AUC(0-inf) ([2]; 550 mg, fasted healthy subjects): 11.1 ng·h/mL
- AUC(0-inf) ([2]; 550 mg, fed healthy subjects): 22.5 ng·h/mL
- Systemic absorption ([2]; regardless of food intake or presence of GI disease): < 0.4%
- Tmax [3, 4]: 2 h
- half-life [3, 4]: 6.61 h
- AUC(0-inf) [3, 5]: 2.53 ng·h/mL
- Cmax [3, 5]: 0.48 ng/mL
- Tmax [3, 5]: 1 h
- half-life [3, 5]: 2.86 h
- Increase in rifaximin mean AUC on co-administration of cyclosporine ([3]; healthy subjects): 124 fold
- Increase in rifaximin mean Cmax on co-administration of cyclosporine ([3]; healthy subjects): 83 fold

Source: patent US10610522B2, “Methods for retreating irritable bowel syndrome (IBS)” (Salix Pharmaceuticals, Inc., priority 2014, dated 2020)
